Data published in publication PMC4014072 (Molecular and cellular biochemistry, 2010).

Target: LdLip3::HA (LdLip3 secretory lipase) (Leishmania donovani, UniProt D7P7V3)
Assay: fluorogenic 4MU release assay, anti-HA affinity-purified enzyme
Type: biochemical
Details: 150 µM substrate, McIlvaine buffer pH 6.0, 37 and 42 °C, 30 min

## CCCCCCCCCCCCCCCCCC(=O)Oc1ccc2c(C)cc(=O)oc2c1 [4MU-stearate]
  fluorogenic 4MU release assay, anti-HA affinity-purified enzyme: LdLip3∷HA chimeric protein and pKSNEO controls were subsequently analyzed for lipase activity using 4MU-stearate
